Tests used:
Assay type in all cases: in vivo
ZEAMX (Zea mays) = experiment: Drought stress test on crop plants in greenhouse, spray application, efficacy vs untreated stressed control (ZEAMX); details: dosage 250 g/ha, efficacy = percentage reduction in the intensity of damage vs untreated stressed control, mean of three results
Experimental: (§1) Seeds of monocotyledonous and dicotyledonous crop plants were placed in sandy loam in wood-fiber pots, covered with soil and cultivated in a greenhouse under good growth conditions. The test plants were treated at the early leaf stage (BBCH10 BBCH13). To ensure uniform water supply before commencement of stress, the potted plants were supplied with the maximum amount of water immediately beforehand by dam irrigation and, after application, transferred in plastic inserts in order to prevent subsequent, excessively rapid drying. The inventive compounds, formulated in the form of wettable powders (WP), wettable granules (WG), suspension concentrates (SC) or emulsion concentrates (EC), were sprayed onto the green parts of the plants as an aqueous suspension at an equivalent water application rate of […] with addition of 0.2% wetting agent (agrotin). Substance application is followed immediately by stress treatment of the plants (cold or drought stress). For cold stress treatment, the plants were kept under the following controlled conditions: […]
(§2) After the recovery phase had ended, the intensities of damage were rated in visual comparison to untreated, unstressed controls of the same age (in the case of drought stress) or the same growth stage (in the case of cold stress). The intensity of damage was first assessed as a percentage (100%=plants have died, 0%=like control plants). […]

[1] = system: TRZAS (Triticum aestivum); experiment: Drought stress test on crop plants in greenhouse, spray application, efficacy vs untreated stressed control (TRZAS); details: dosage 25 g/ha, efficacy = percentage reduction in the intensity of damage vs untreated stressed control, mean of three results
Experimental: as §1, §2

BRSNS (Brassica napus) = experiment: Drought stress test on crop plants in greenhouse, spray application, efficacy vs untreated stressed control (BRSNS); details: dosage 250 g/ha, mean of three results
Experimental: as §1, §2

COC(=O)C1(NS(=O)(=O)c2ccc(OC)cc2)CCC(OC)CC1 (stereo not drawn) [I.37-87, Methyl 4-methoxy-1-{[(4-methoxyphenyl)sulfonyl]amino}-cyclohexanecarboxylate]
>5%: EF (ZEAMX) (ZEAMX (Zea mays)) | Efficacy (TRZAS) [1] | EF (BRSNS): Efficacy = percentage reduction in the intensity of damage (BRSNS (Brassica napus))

Reference: patent US20140038822A1, “USE OF SUBSTITUTED SPIROCYCLIC SULFONAMIDOCARBOXYLIC ACIDS, CARBOXYLIC ESTERS THEREOF, CARBOXAMIDES THEREOF AND CARBONITRILES THEREOF OR SALTS THEREOF FOR ENHANCEMENT OF STRESS TOLERANCE IN PLANTS” (BAYER INTELLECTUAL PROPERTY GMBH, priority 2010, published 2014)
